The values below come from patent publication US20220370553A1, “PREBIOTIC-INDUCED ANTI-TUMOR IMMUNITY” (Sanford Burnham Prebys Medical Discovery Institute, priority 2019, published 2022).

Test [1] concerns intestinal epithelial cells. In words: qRT-PCR of inflammatory mediators in intestinal epithelial cells in vivo. The arrangement: species or system C57BL/6 mice. The note with it: mucin 3% in drinking water, naïve mice, 2 weeks. A general note: Quantitative PCR measures a nucleic acid by following its amplification.
Source text: FIG. 15 illustrates effects of mucin and inulin on expression of inflammatory mediators by intestinal epithelial cells in vivo. qRT-PCR data are shown for mRNA levels of the indicated inflammatory mediators in intestinal epithelial cells from mucin or inulin-treated mice (n=4). Data are representative of two independent experiments. Graphs show the mean s.e.m. *P<0.05, **P<0.005, one-way ANOVA with Tukey's correction.
Isolation of intestinal epithelial cells. A 10 cm section of mouse small intestine was opened longitudinally, minced, washed in 150 mM NaCl containing 1 mM DTT, and then resuspended in dissociation buffer (130 mM NaCl, 10 mM EDTA, 10 mM Hepes [pH 7.4], 10% FCS, and 1 mM DTT). The sections were incubated at 37° C. for 30 min with vigorous shaking to release the epithelial cells from the lamina propria. The epithelial cell suspension was then carefully aspirated, centrifuged, and washed in ice-cold PBS.
The effect of mucin and inulin on intestinal epithelial cells was evaluated in vivo. To this end, mucin (3% in drinking water) or inulin (15% in chow) were administered to naïve C57BL/6 mice for 2 weeks. Intestinal epithelial cells were isolated from small intestine and were assessed for the level of select cytokines and chemokines that are implicated in the activation of the immune response and anti-tumor immunity.
In test [2] the test system is MC-38 mouse colorectal cancer cells. As to the kind of experiment: Growth of MC-38 colorectal cancer tumors in prebiotic-fed mice. It counts as in vivo, C57BL/6 mice. The note with it: 3% mucin in drinking water or 15% inulin diet from two weeks prior to inoculation. An excerpt:
MC-38 mouse colorectal cancer cells (1×10^6) were inoculated, and diets were continued after inoculation.

Test [3] deals with OT-I CD8+ T cells. As to the kind of experiment: In vivo OT-I T cell assay with B16-OVA melanoma cells. The arrangement: species or system C57BL/6 mice. The note with it: mucin-treated vs control mice. As to the method:
Right dot plots show gating of CD45.1+CD8+ cells (n=6). FIG. 4B Quantification of CD45.1+OT-I CD8+ T cell number in the tumor-draining lymph nodes (TdLN) and non-draining lymph nodes (ndLN) of WT C57BL/6 mice CD45.2+ mice that were injected with B16-OVA melanoma cells (n=10). Graphs show the mean s.e.m. *P<0.05, by two-tailed t-test or Mann-Whitney U test.
In vivo OT-I T cell proliferation assay. […] After 24 h, the mice were injected s.c. with 1×10^6 B16-OVA melanoma cells and the mice were left for 7 days. The spleen, tumor-draining lymph nodes, and non-draining lymph nodes were harvested and analyzed by flow cytometry. The proliferation of OT-1 CD8+ T cells was assessed by analysis of CFSE dilution within the population by gating on CD45.1+CD8+ T cells.
To assess the activation and homing of tumor-specific T cells in prebiotic-treated mice, an adoptive transfer model was used with OVA-specific OT-I transgenic T cells. OVA-specific OT-I CD8+, CD45.1+ T cells were transferred into untreated or mucin-treated WT mice. Mice were injected with OVA-expressing B16F10 tumor cells, and the frequency of OVA-specific OT-I T cells was monitoring in tumor draining and non-tumor-draining lymph nodes. OT-I CD8+ T cells were more abundant in the tumor-draining lymph nodes of mucin-treated mice, compared with control mice (FIG. 4A-B).

Test [4] deals with bone marrow-derived dendritic cells (BMDCs). In words: Activation of bone marrow-derived dendritic cells in vitro. It counts as cell-based, murine. Particulars: 24 h, 0.05 and 0.5 mg/ml. An excerpt:
Data are representative of two independent experiments. Graphs show the mean±s.e.m. *P<0.05, **P<0.005, ***P<0.001, ****P<0.0001 one-way ANOVA with Tukey's correction.
Bone Marrow-Derived Dendritic Cells (BMDCs).

Test [5] relates to N-Ras mutant melanoma tumor cells (MaNRAS1). In words: Growth of N-Ras mutant melanoma tumors with prebiotics with or without MEKi. The test is classed as in vivo, C57BL/6 mice. Particulars: in the absence of MEKi; mucin 3% in water or inulin 15% in chow.
Procedure: FIG. 7A C57BL/6 mice were injected (s.c.) with NRAS^Q61K mouse melanoma cells (1×10^6) (n=10). The mice were administered with either a control diet alone, or one supplemented with mucin (3%) in drinking water or inulin (15%) in chow starting 14 days prior to tumor inoculation. When tumors reached a volume of 10-20 mm^2, mice were treated with MEKi (PD325901) administered by gavage (10 mg/kg, daily), alone or in combination with inulin or mucin, as indicated. Tumor volume was assessed every 4 days. […] Data are representative of two independent experiments. Graphs show the mean±s.e.m. *P<0.05, **P<0.005, ***P<0.001, ****P<0.0001 by two-way ANOVA with Tukey's correction (A) or one-way ANOVA with Tukey's correction (B-D).
Animals and tumor models. […] Male 6-8-week-old mice were used for all experiments. […] All mice were fed an autoclaved chow diet ad libitum (LabDiet 5K67, Purina Foods). […] Mouse selection for experiments was not formally randomized or blinded. For tumor growth experiments, mice were injected subcutaneously (s.c.) with 1×10^6 tumor cells. Tumor size was measured twice a week for calculation of tumor volume. Tumors were weighed at the time of excision.
Mucin and inulin treatment. For mucin treatment, C57BL/6 mice were subjected to control or water supplemented with 3% mucin (Lee Biosolutions) prior to (14 days) and during tumor inoculation. Water was changed every other day. For inulin treatment, mice were received a diet (TD. 94048, AIN-93M, Purified Diet, ENVIGO) enriched with long-chain inulin by substituting all of sucrose and 5% of corn starch in the control diet or a modified diet (TD. 160256, Modified AIN-93M, Diet w 15% inulin, ENVIGO) prior to (14 days) and during tumor inoculation. Diets were changed 2 times a week.
Experiments were conducted to determine whether prebiotics impacted the effectiveness of MEK inhibitor (MEKi) treatment on tumor growth control and treatment resistance.
The test system of test [6] is SW1 (syngeneic NRAS mutant melanoma) cells. In words: SW1 melanoma growth with mucin and/or inulin. The test is classed as in vivo, C3H/HeOuJ mice. Particulars: 3% mucin in drinking water and/or 15% inulin diet from 14 days prior to inoculation.
Source text: FIG. 17A Growth of SW1 mouse melanoma cells in C3H/HeOuJ mice that were fed with 0 or 3% mucin in drinking water and/or a diet enriched with 15% inulin, starting 14 days prior to (and continued after) tumor inoculation (n=10). FIG. 17B. […] Graphs show the mean±s.e.m. *P<0.05, **P<0.005,***P<0.001, ****P<0.0001 by two-way ANOVA with Tukey's correction.
Animals and tumor models. All experimental animal procedures were approved by the Institutional Animal Care and Use Committee of Sanford Burnham Prebys Medical Discovery Institute (SBP) and complied with all relevant ethical regulations for animal testing and research. C57BL/6 mice were obtained from Sanford Burnham Prebys Medical Discovery Institute. […] C3H/HeOuJ mice were purchased from Jackson laboratories. Male 6-8-week-old mice were used for all experiments. […] All mice were fed an autoclaved chow diet ad libitum (LabDiet 5K67, Purina Foods). […] Mouse selection for experiments was not formally randomized or blinded. For tumor growth experiments, mice were injected subcutaneously (s.c.) with 1×10^6 tumor cells. Tumor size was measured twice a week for calculation of tumor volume. Tumors were weighed at the time of excision.
Mucin and inulin treatment. For mucin treatment, C57BL/6 mice were subjected to control or water supplemented with 3% mucin (Lee Biosolutions) prior to (14 days) and during tumor inoculation. […]
Test [7] deals with SW1 tumor cells. As to the kind of experiment: SW1 tumor growth in germ free mice colonized with minimal microbiota (ASF). The test is classed as in vivo, C3H/HeN mice. The note with it: two weeks of mucin, 24 days. An excerpt: Tumor size was monitored over the next 24 days (n=15).
Animals and tumor models. All experimental animal procedures were approved by the Institutional Animal Care and Use Committee of Sanford Burnham Prebys Medical Discovery Institute (SBP) and complied with all relevant ethical regulations for animal testing and research. C57BL/6 mice were obtained from Sanford Burnham Prebys Medical Discovery Institute. OT-I mice were bred at SBP to CD45.1 mice (B6.SJLB6.SJL-Ptprc^a Pepc^b/BoyJ) that were obtained from Jackson Laboratories. C3H/HeOuJ mice were purchased from Jackson laboratories. Male 6-8-week-old mice were used for all experiments. […] Briefly, fresh feces were collected and analyzed by bacterial 16S rRNA gene-specific PCR (30 cycles, universal bacteria primers 8F and 1391R) in combination with aerobic and anaerobic culture of feces in Brain Heart Infusion, Wilkins-Chalgren and Yeast Mold broths, and on Tryptic Soy Agar plates (all media from Difco™ Becton Dickinson) at 37° C. for 7 days. […] Briefly, genomic DNA was extracted from fecal samples and ASF bacteria were quantified by qPCR with species-specific primers. […] Tumor size was measured twice a week for calculation of tumor volume. […]
In order to test the requirement for gut microbiota in prebiotic-induced tumor control, experiments were conducted using mice with a defined, minimal microbiota. […] Tumor size was monitored over the next 24 days.

The subject of test [8] is Bifidobacterium spp. In words: Anaerobic fecal cultures with 1% prebiotic, 16S rDNA quantification. The test is classed as cell-based, human. Particulars: in two of these cultures. As to the method:
(§1) Fecal samples derived from 12 healthy human subjects were cultivated in the presence or absence of 1% prebiotic. 16S rDNA sequences corresponding to Bifidobacterium, Bacteroides and Akkermansia muciniphila were quantified. Data are representative of three independent experiments. Graphs show the mean±s.e.m. *P<0.05, **P<0.005, ***P<0.001, ****P<0.0001 by one-way ANOVA with Tukey's correction.
(§2) Anaerobic fecal cultures. […] Anaerobic cultures (9% H2, 81% N2) were grown statically for 3-4 days at 37° C. and grown to approximate saturation.
(§3) Chemically-defined medium (CDM). CDM contains 50 mM HEPES, 2.2 mM KH2PO4, 10 mM Na2HPO4, 60 mM NaHCO3, 4 mM of each amino acid, except leucine (15 mM), 10 mL ATCC, Trace Mineral Supplement. CDM contained nucleoside bases (100 mg/L), inosine, xanthine, adenine, guanine, cytosine, thymidine and uracil (400 mg/L). CDM contained choline (100 mg/L), ascorbic acid (500 mg/L), lipoic acid (2 mg/L), hemin (1.2 mg/L) and myo-inositol (400 mg/L). Resazurin (1 mg/L) was added to visually monitor dissolved oxygen. The pH of the media was adjusted to 7.4.
(§4) Fecal samples derived from 12 healthy, vegetarian human subjects were cultivated in a chemically-defined medium the presence or absence of 1% prebiotic. Anaerobic cultures (9% H2, 81% N2) were grown statically for 3-4 days at 37° C. and grown to approximate saturation.

For test [9], the system named is A. muciniphila. The test is described as above. It counts as cell-based, human. Particulars: in most of the cultures. As for the experimental part: as §1, §2, §3, §4

For the substance mucin, the “TNF-α mRNA level in intestinal epithelial cells” value in test [1] was “elevated”. Moreover, the “growth of colon cancer MC-38 tumors” value in test [2] is reported as “not”. Also, in [3], the “OT-I CD8+ T cells in tumor-draining lymph nodes” value is reported as “more abundant”. Also, in test [4], the “CD40, CD80, MHC I and MHC II on BMDCs” value was “increased”. In addition, the “control of N-Ras mutant tumors” value in test [5] is “not”. The SW1 tumor growth entry in test [6] is reported as “attenuated tumor growth”; in test [7], “failed to attenuate tumor growth”. Also, the Bifidobacterium spp. result in test [8] was “not”. In addition, the “relative abundance of A. muciniphila” value in [9] is “increased”.
